Measured values: patent publication US20120283096A1, “AGENT FOR IMPROVING PLANT GROWTH, SEEDS, AND METHOD FOR IMPROVING PLANT GROWTH” (Incorporated Administrative Agency National Agricu lture …, priority 2010, published 2012)
Entries after “also recorded” stand apart in the source; their conditions may differ.

How the values were obtained:
[1] = tested on: barley; assay: Seedling establishment of barley seeds in humid soil (Example 6-1, FIG. 20a); type: in vivo; conditions: 0.01 mmol to 0.5 mmol molybdenum per gram of dry seed, 20° C., after two weeks
Protocol: (§1) As in Example 4-1, ammonium sulfate in an equivalent amount of 10 g/m^2 in terms of nitrogen and potassium chloride equivalent to 5 g/m^2 of potassium as potassium oxide were added as a solution to paddy humid soil in terms of 100 kg/m^2 of dry soil with a soil-to-liquid ratio of 0.7. The soil was placed into each container (in the shape of a cylinder approximately 7 cm in diameter) in an amount equivalent to 100 g of dry soil. The soil surface was flattened by giving it a slight press with a flat plate. Then, the soil was left at rest for one day at 4° C. […] The seeds were then half-buried in the soil. After that, at a constant temperature of 20° C., the water level was kept by adding water to such an extent that the seeds were slightly covered with water. Six containers were allotted for each condition, and the proportion of seedling establishment (proportion of individual plants that survived) was measured after two weeks. It should be noted that in each of FIGS. 20a and 20b, the horizontal axis represents the number of moles (mmol) of molybdenum that adhered per gram of dry seed. In each of FIGS. 20a and 20b, the dots correspond to the numbers of moles of 0, 0.01, 0.02, 0.05, 0.1, 0.2, and 0.5 mmol, starting from the left. […]

[2] = tested on: barley; assay: Seedling establishment of barley seeds with ammonium molybdophosphate (Example 5, FIG. 12); type: in vivo; conditions: 20° C. and 30° C., after two weeks
Protocol: (§2) As in Example 4-1, ammonium sulfate in an equivalent amount of 10 g/m^2 in terms of nitrogen and potassium chloride equivalent to 5 g/m^2 of potassium as potassium oxide were added as a solution to paddy humid soil, on the condition that the weight of dry soil is 100 kg/m^2. The soil was placed into each container (in the shape of a cylinder approximately 7 cm in diameter) in an amount equivalent to 100 g of dry soil, shaken for approximately one hour, and left at rest for two days at 4° C. It should be noted, however, that the soil-to-liquid ratio was 0.7. On this condition, the soil surface became substantially as high as the water surface. Barley seeds (branded as Nishinochikara) and soybean seeds (branded as Fukuyutaka) not subjected to treatment such as soaking in advance were soaked in water for one minute. Immediately after the extra water was removed, the seeds were put with a […] molybdenum amount of ammonium molybdophosphate (purchased from Wako Pure Chemical Industries, Ltd.) per gram of dry seed. The seeds were then half-buried in the samples of soil. […] Six containers were allotted for each condition, and the proportion of seedling establishment (proportion of individual plants that survived) was measured after two weeks.

[3] = tested on: paddy rice; assay: Seedling establishment of coated paddy seeds in submerged soil containers (Examples 4-1 to 4-4b, FIGS. 11, 14-19c); type: in vivo; conditions: germinated seeds, 30° C.
Protocol: The germinated paddy seeds were soaked for one minute in a tenfold diluted solution of a commercially available laundry starch (manufactured by Rocket Soap Co., Ltd.; My Laundry Starch) containing approximately a little less than 10% by weight of polyvinyl alcohol, centrifuged at 1000 rpm for removal of the extra solution, and, immediately after that, lightly covered with different amounts of ammonium molybdophosphate, whereby seeds with different amounts of ammonium molybdophosphate were prepared.
It should also be noted that in each of FIGS. 14 through 15b, the horizontal axis represents the number of moles (mmol) of molybdenum or tungsten that adhered per gram of dry seed. In each of FIGS. 14 through 15b, the dots correspond to the numbers of moles of 0, 0.02, 0.05, 0.1, 0.2, 0.5, 1, and 2 mmol, starting from the left.
It should be noted that in each of FIGS. 16 through 18, the horizontal axis represents the number of moles (mmol) of molybdenum that adhered per gram of dry seed. In each of FIGS. 16 through 18, the dots correspond to the numbers of moles of 0, 0.02, 0.05, 0.1, 0.2, 0.5, 1, and 2 mmol, starting from the left.
It should be noted that in FIG. 19a, the horizontal axis represents the number of moles (mmol) of molybdenum that adhered per gram of dry seed. In FIG. 19a, the dots correspond to the numbers of moles of 0, 0.02, 0.05, 0.1, 0.2, 0.5, 1, and 2 mmol, starting from the left.
The resulting seeds were allowed to spend time in a sufficiently wet condition so that the iron rusted, and then allowed to further spend overnight. […] Six containers were allotted for each condition, and the proportion of seedling establishment and the standard error were examined. It should be noted that in FIG. 19b, the horizontal axis represents the number of moles (mmol) of molybdenum that adhered per gram of dry seed. In FIG. 19b, the dots correspond to the numbers of moles of 0, 0.02, 0.05, 0.1, 0.2, 0.5, 1, and 2 mmol, starting from the left.
Six containers were allotted for each condition, and the proportion of seedling establishment and the standard error were examined. It should be noted that in FIG. 19c, the horizontal axis represents the actual weight ratios of 25 wt % calcium peroxide that adhered with respect to the weight of dry seed. In FIG. 19c, the dots correspond to the actual weight ratios of 25 wt % calcium peroxide of 0, 0.01, 0.02, 0.05, 0.1, 0.2, 0.5, and 1 time, starting from the left.

[4] = tested on: wheat; assay: Seedling establishment of wheat seeds in humid soil (Example 6-1, FIG. 20b); type: in vivo; conditions: 0.01 mmol to 0.5 mmol molybdenum per gram of dry seed, 20° C., after two weeks
Protocol: as §1

[5] = tested on: soybean; assay: Seedling establishment of soybean seeds with ammonium molybdophosphate (Example 5, FIG. 12); type: in vivo; conditions: 20° C. and 30° C., after two weeks
Protocol: as §2

[6] = tested on: paddy rice; assay: Seedling establishment of coated paddy seeds planted in a paddy field (Example 4-5, FIG. 22); type: in vivo; conditions: dry seeds coated with clay plus 0.1 mmol/g molybdenum; kept submerged, about one month after seeding; versus WITHOUT MATERIAL and oxygen generating agent (Cal); trihydrate
Protocol: Dry paddy seeds (branded as Hinohikari) were prepared.
Separately, dry seeds (WITHOUT MATERIAL) coated solely with clay containing no molybdenum were also prepared. Furthermore, dry seeds (Cal) coated with an oxygen generating agent (Calper Powder 16, Hodogaya UPL Co., Ltd.) the same weight per dry seeds were also prepared. Calper Powder 16 is an oxygen generating agent composed mainly of calcium peroxide.
These dry seeds were planted in puddled soil in a paddy field in Chikugo City, Fukuoka Prefecture, by using a simultaneous puddling and planting point sowing machine. By preparing the seeds as described above and planting them by using a point sowing machine, the amount of seeding per unit area of the paddy field can be substantially uniformed. It should be noted that prior to soil puddling, 4 g/m^2 of ammonium sulfate as nitrogen and potassium sulfate containing potassium equivalent to 8 g/m^2 as potassium oxide had been applied to the paddy field. After seeding, the seeds were kept submerged without draining the water.

[7] = tested on: decay of paddy seeds; assay: Decay-inhibiting effect in tank farming without soil (Example 3); conditions: seeds covered with substance, soaked two weeks in water at 30° C.
Protocol: The decay-inhibiting effect of molybdenum-containing substances in tank farming without soil was examined.
The possibility of growth and the inhibition of decay were determined in the same manner as above.

Triammonium 12-moblydo(VI)phosphate trihydrate [Ammonium molybdophosphate]
proportion of seedling establishment [1]: improvements in proportion of seedling establishment | proportion of seedling establishment [2]: improvements in proportion of seedling establishment | molybdenum or tungsten amount leading to improvements in proportion of seedling establishment ([3]; polyvinyl alcohol adhesive, compared with 0 mmol/g): ≥ 0.02 mmol per gram of dry seeds | proportion of seedling establishment ([3]; molybdenum amount of 0.5 mmol/g or more, FIG. 11): ~80% | proportion of seedling establishment [4]: improvements in proportion of seedling establishment | proportion of seedling establishment [5]: improvements in proportion of seedling establishment | seedling establishment [6]: obvious improvements in seedling establishment; also recorded: most remarkable improving effect on seedling establishment | Inhibition of decay, Amount of molybdenum or tungsten added to seed [7]: <0.01 mmol/g
